Where a name gives a salt, the structure may show the parent alone.

As usually defined, the melting point is the temperature of the solid-liquid transition. Consider `CCCCCCOC(=O)NCCc1nc(-c2ccc(-c3ccc(Br)cc3)cc2)c[nH]1` [Example 381, hexyl 2-[4-(4′-bromo-1,1′-biphenyl-4-yl)-1H-imidazol-2-yl]ethylcarbamate], for which the melting point was 138 to 140 °C. Under `CCCCCC(N)c1nc(-c2ccccc2)c[nH]1` (racemic) (as salt: hydrochloride) [Example 65, (R,S)-1-(4-phenyl-1H-imidazol-2-yl)hexylamine] stands 146 to 148 °C.

Compound `NCc1nc(-c2ccccc2)c[nH]1` (as salt: hydrochloride) [Example 51, (4-phenyl-1H-imidazol-2-yl)methanamine] came in with a melting point of 228 to 230 °C.

As for `CCCCCCC(NCCCCC)c1nc(-c2ccccc2)c[nH]1` (racemic) [Example 75, (R,S)-N-pentyl-1-(4-phenyl-1H-imidazol-2-yl)-1-heptanamine], the melting point was 118 to 120 °C. On to `CC(C)(C)OC(=O)N[C@H](Cc1c[nH]c2ccccc12)c1nc(-c2ccc([N+](=O)[O-])cc2)c[nH]1` [Example 102, tert-butyl (1R)-2-(1H-indol-3-yl)-1-[4-(4-nitrophenyl)-1H-imidazol-2-yl]-ethylcarbamate], for which the melting point was 220 to 222 °C. In the case of `CCCCOC(=O)NCCc1nc(-c2ccc(-c3ccc(Br)cc3)cc2)c[nH]1` [Example 281, 4-bromo-4′-(2-{2-[(butoxycarbonyl)amino]ethyl}-1H-imidazol-4-yl)-1,1′-biphenyl] it was 166 °C; in that of `CCCCOC(=O)NCCc1nc(-c2ccc(CCC)cc2)c[nH]1` [Example 449, butyl 2-[4-(4-propylphenyl)-1H-imidazol-2-yl]ethylcarbamate], 83.2 °C. In the case of `CCCCOC(=O)NCCc1nc(-c2ccc(-c3cc(F)ccc3F)cc2)c[nH]1` [Example 460, butyl 2-[4-(2′,5′-difluoro-1,1′-biphenyl-4-yl)-1H-imidazol-2-yl]ethylcarbamate] it was 109.5 °C; in that of `O=C(NCCc1nc(-c2ccc(-c3ccccc3)cc2)c[nH]1)OCCc1ccccc1` [Example 391, 2-phenylethyl 2-[4-(1,1′-biphenyl-4-yl)-1H-imidazol-2-yl]ethylcarbamate], 142 to 143 °C. In the case of `FC(F)(F)Oc1ccc(-c2c[nH]c([C@@H](NC3CCC3)C3CCCCC3)n2)cc1` [Example 270, N-((S)-cyclohexyl{4-[4-(trifluoromethoxy)phenyl]-1H-imidazol-2-yl}methyl)-cyclobutanamine] it was 136 to 140 °C; in that of `CC(C)(C)OC(=O)N[C@H](CC1CCCCC1)c1nc(-c2ccc(-c3ccccc3)cc2)c[nH]1` [Example 150, 4-(2-{(1R)-1-[(tert-butoxycarbonyl)amino]-2-cyclohexylethyl}-1H-imidazol-4-yl)-1,1′-biphenyl], 112 to 114 °C; in that of `N[C@H](c1nc(-c2ccccc2)c[nH]1)C1CCCCC1` (as salt: hydrochloride) [Example 80, (S)-cyclohexyl(4-phenyl-1H-imidazol-2-yl)methylamine], 208 to 210 °C. In turn, `CCCCCCOC(=O)NCCc1nc(-c2ccc(-c3ccccc3)cc2)c[nH]1` [Example 255, hexyl 2-(4-[1,1′-biphenyl]-4-yl-1H-imidazol-2-yl)ethylcarbamate] came in with a melting point of 116.5 to 116.8 °C. In the case of `CC(C)(C)CCOC(=O)NCCc1nc(-c2ccc(N3CCCC3)cc2)c[nH]1` [Example 379, 3,3-dimethylbutyl 2-[4-(4-pyrrolidin-1-ylphenyl)-1H-imidazol-2-yl]ethylcarbamate], the melting point turned out to be 119.2 °C. Compound `CCCCCCOC(=O)NCCc1nc(-c2cc(C(C)(C)C)c(O)c(C(C)(C)C)c2)c[nH]1` [Example 386, hexyl 2-[4-(3,5-ditert-butyl-4-hydroxyphenyl)-1H-imidazol-2-yl]ethylcarbamate] had a melting point of 197.4 °C. In the case of `CC(C)(C)OC(=O)N[C@H](Cc1c[nH]c2ccccc12)c1nc(-c2ccccc2)c[nH]1` [Example 96, tert-butyl (1R)-2-(1H-indol-3-yl)-1-(4-phenyl-1H-imidazol-2-yl)-ethylcarbamate] it was 208 to 210 °C; in that of `Fc1ccc(-c2c[nH]c([C@@H](NC3CCCCC3)C3CCCCC3)n2)cc1F` [Example 287, N-{(S)-cyclohexyl[4-(3,4-difluorophenyl)-1H-imidazol-2-yl]methyl}cyclohexanamine], 182.3 °C; in that of `c1ccc(OCCN[C@H](Cc2c[nH]c3ccccc23)c2nc(-c3ccccc3)cs2)cc1` [Example 112, (1R)-2-(1H-indol-3-yl)-N-(2-phenoxyethyl)-1-(4-phenyl-1,3-thiazol-2-yl)ethanamine], 124 to 126 °C. In the case of `COc1ccc(-c2c[nH]c([C@@H](N)C3CCCCC3)n2)cc1F` (as salt: hydrochloride) [Example 259, (S)-cyclohexyl[4-(3-fluoro-4-methoxyphenyl)-1H-imidazol-2-yl]-methanamine] it was 225 to 227 °C. Under `NCc1nc(-c2ccc(-c3ccccc3)cc2)c[nH]1` (as salt: hydrochloride) [Example 141, (4-[1,1′-biphenyl]4-yl-1H-imidazol-2-yl)methanamine] stands 240 to 242 °C. With `Cn1cc(-c2ccc(F)cc2)nc1[C@@H](NC1CCCCC1)C1CCCCC1` (as salt: hydrochloride) [Example 279, N-{(S)-cyclohexyl[4-(4-fluorophenyl)-1-methyl-1H-imidazol-2-yl]methyl}cyclohexanamine], the melting point is 190 to 194 °C.

`c1ccc(CN[C@@H](Cc2c[nH]c3ccccc23)c2nc(-c3ccccc3)c[nH]2)cc1` [Example 93, (1S)-N-benzyl-2-(1H-indol-3-yl)-1-(4-phenyl-1H-imidazol-2-yl)ethanamine]: the melting point fell in the range of 118 to 120 °C.

`CC(C)(C)NC(=O)NCCc1nc(-c2ccc(-c3ccccc3)cc2)c[nH]1` [Example 177, 4-[2-(2-{[(tert-butylamino)carbonyl]amino}ethyl)-1H-imidazol-4-yl]-1,1′-biphenyl] returned a melting point of 195 to 196 °C. In the case of `FC(F)(F)c1ccc(-c2c[nH]c([C@@H](NC3CCCCC3)C3CCCCC3)n2)cc1` (as salt: hydrochloride) [Example 296, N-((S)-cyclohexyl{4-[4-(trifluoromethyl)phenyl]-1H-imidazol-2-yl}methyl)cyclohexanamine] it was 214.1 °C.

Consider `Fc1ccc(-c2c[nH]c([C@@H](NCC3CCCCC3)C3CCCCC3)n2)cc1` (as salt: hydrochloride) [Example 295, (S)-1-cyclohexyl-N-(cyclohexylmethyl)-1-[4-(4-fluorophenyl)-1H-imidazol-2-yl]methanamine], for which the melting point lay in the range of 190 to 192 °C.

As for `O=C(NCCc1nc(-c2ccc(-c3ccccc3)cc2)c[nH]1)OC1CCCCC1` [Example 269, 4-[2-(2-{[(cyclohexyloxy)carbonyl]amino}ethyl)-1H-imidazol-4-yl]-1,1′-biphenyl], the melting point was 150 °C. In the case of `CNCc1nc(-c2ccccc2)c(C)[nH]1` (as salt: hydrochloride) [Example 158, N-methyl-(5-methyl-4-phenyl-1H-imidazol-2-yl)methanamine] it was 218 to 220 °C.
